Some test systems named below: COLO 205; DU-145; HCT-15; MOLT-4; Malme-3M; OVCAR-4; SF-268; SF-295; SK-MEL-28; SN12C; SNB-19; SNB-75; U-251; UACC-257; UO-31; LOX IMVI; NCI-H226; OVCAR-8.
Holding throughout (assay): DTP human tumour cell line panel, 48 h

Consider twelve molecules from ChEMBL document CHEMBL1201862, “PubChem BioAssay data set” (2004).

Broadly, the GI50 is the concentration at which growth is held to half of that of the control.

Molecules are shown by their SMILES.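 1) Cells in 96-well plates. 2) Compound, 48 h, 5 concentrations. 3) Linear interpolation between surrounding doses. 4) Unreached endpoint = highest concentration. GI50 is the concentration that inhibits growth by half.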 Active and inactive are the calls of the source. No stated cut-off is given here; in the data, active = GI50 up to about 1.1 µM and inactive = higher. Where only a bound is given, the exact number is not on record here.

Turning to `CO[C@](C(=O)OC[C@H]1[C@@H](COC(C)=O)[C@@H]2O[C@H]1c1cc3c(cc12)OCO3)(c1ccccc1)C(F)(F)F`, the GI50 in the test with COLO 205 is 28.6 µM (inactive); with DU-145 it was 34.9 µM (inactive); in the test on HCT-15, 7.46 µM; with MOLT-4, 19.4 µM (inactive); in the test on Malme-3M, > 100 µM (inactive); in the test with OVCAR-4 it was 40.4 µM (inactive). The GI50 is 30.7 µM (inactive) with SF-268; 18 µM (inactive) in the test on SF-295; 41.3 µM (inactive) with SK-MEL-28; 25.1 µM (inactive) in the test on SN12C; 50.4 µM (inactive) in the test on SNB-19; 20.4 µM (inactive) in the test on SNB-75. Further, the GI50 in the test with U-251 is 36.5 µM (inactive); with UACC-257, 40.5 µM (inactive); with UO-31, 10.4 µM (inactive).

For `CCC(C)(C)NC1=C(NC(C)=O)C(=O)c2ccccc2C1=O`, the GI50 is 29.4 µM (inactive) in the test on COLO 205; 32.9 µM with HCT-15; 29.8 µM (inactive) in the test with LOX IMVI; 13.9 µM (inactive) with MOLT-4; 28.7 µM (inactive) in the test on Malme-3M; > 75 µM (inactive) with NCI-H226. The GI50 was > 75 µM (inactive) in the test with OVCAR-4; 54.8 µM (inactive) with OVCAR-8; > 75 µM (inactive) in the test on SF-268; > 75 µM (inactive) with SF-295; 61.5 µM (inactive) with SK-MEL-28; > 75 µM (inactive) in the test with SN12C. In addition, the GI50 in the test on SNB-19 was > 75 µM (inactive); with SNB-75, > 75 µM (inactive); in the test on U-251, 36.1 µM (inactive); in the test on UACC-257 it was 20.3 µM (inactive); in the test on UO-31, 27.5 µM (inactive).

For the molecule `CC(C)(C)N/N=C(\Cc1occc(=O)c1O)C(=O)Nc1ccc([N+](=O)[O-])cc1[N+](=O)[O-]`, the GI50 was > 100 µM (inactive) in the test on COLO 205; greater than 100 µM in the test on HCT-15; > 100 µM (inactive) in the test on LOX IMVI; > 100 µM (inactive) with MOLT-4; > 100 µM (inactive) with Malme-3M; > 100 µM (inactive) in the test with NCI-H226. In addition, the GI50 in the test with OVCAR-4, with OVCAR-8, with SF-268, in the test on SF-295, in the test with SK-MEL-28 and with SN12C was > 100 µM (inactive) in each case. In addition, the GI50 with SNB-19, in the test on SNB-75, with U-251, in the test with UACC-257 and with UO-31 was > 100 µM (inactive) in each case.

For the molecule `O=C1CCC(c2nc3cc(Cl)ccc3o2)C(=O)N1` (centres undefined), the GI50 with COLO 205 is > 100 µM (inactive); with HCT-15, greater than 100 µM; in the test with LOX IMVI, > 100 µM (inactive); with MOLT-4, > 100 µM (inactive); in the test with Malme-3M, > 100 µM (inactive); in the test with NCI-H226, > 100 µM (inactive). Besides, the GI50 in the test on OVCAR-4, with OVCAR-8, in the test on SF-268, in the test with SF-295, in the test with SK-MEL-28 and in the test on SN12C was > 100 µM (inactive) each time. Also, the GI50 with SNB-19 is > 100 µM (inactive); with SNB-75, 64.7 µM (inactive); with U-251, > 100 µM (inactive); with UACC-257, > 100 µM (inactive); in the test on UO-31 it was > 100 µM (inactive).

For the molecule `CCOC(=O)CCn1[nH]c(=O)c(Cl)c(Cl)c1=O`, the GI50 in the test on COLO 205 was > 100 µM (inactive); with HCT-15, greater than 100 µM; with LOX IMVI, > 100 µM (inactive); with Malme-3M it was > 100 µM (inactive); with NCI-H226, > 100 µM (inactive); in the test with OVCAR-4, > 100 µM (inactive). The GI50 in the test with OVCAR-8, with SF-268, in the test with SF-295, with SK-MEL-28, in the test on SN12C and in the test on SNB-19 was > 100 µM (inactive) throughout. The GI50 in the test on SNB-75, in the test with U-251, with UACC-257 and with UO-31 was > 100 µM (inactive) in each case.

As for `COC(=O)/C=C\C1C(C(=O)OC)C2(C(=O)OC)CCC1(C(=O)OC)N2` (centres undefined), the GI50 was 4.19 µM (inactive) in the test with COLO 205; 3.33 µM in the test on HCT-15; 13.4 µM (inactive) in the test on LOX IMVI; 3.77 µM (inactive) in the test with MOLT-4; 5.98 µM (inactive) in the test on Malme-3M; 19.1 µM (inactive) in the test with NCI-H226. The GI50 with OVCAR-4 was 19.1 µM (inactive); in the test with OVCAR-8, 7.19 µM (inactive); in the test with SF-268, 23.8 µM (inactive); with SF-295, 23.4 µM (inactive); in the test on SK-MEL-28 it was 13.6 µM (inactive); with SN12C it was 16.3 µM (inactive). In addition, the GI50 in the test with SNB-19 was 15.8 µM (inactive); in the test with SNB-75, 18.5 µM (inactive); in the test on U-251 it was 18.5 µM (inactive); in the test on UACC-257 it was 6.5 µM (inactive); in the test with UO-31 it was 17 µM (inactive).

As to `C[C@]12CCC(=O)C=C1CC[C@@H]1[C@@H]2[C@@H](O)C[C@@]2(C)[C@H]1CC[C@]2(O)C(=O)COC(=O)COCC(=O)O`, the GI50 with COLO 205 is > 100 µM (inactive); in the test with HCT-15, greater than 100 µM; in the test on LOX IMVI, > 100 µM (inactive); with MOLT-4, > 100 µM (inactive); in the test with Malme-3M it was > 100 µM (inactive); in the test with NCI-H226, > 100 µM (inactive). In addition, the GI50 in the test on OVCAR-4, in the test on OVCAR-8, in the test on SF-268, in the test on SF-295, with SK-MEL-28 and in the test with SN12C was > 100 µM (inactive) each time. The GI50 with SNB-19, in the test on SNB-75, with U-251, with UACC-257 and with UO-31 was > 100 µM (inactive) throughout.

As for `COc1c2ccoc2c(S(=O)(=O)Nc2ccc(Cl)cc2)c2oc(C)cc(=O)c12`, the GI50 in the test with COLO 205 was > 100 µM (inactive); in the test on HCT-15, greater than 100 µM; with LOX IMVI, > 100 µM (inactive); in the test on MOLT-4, > 100 µM (inactive); with Malme-3M, 96.6 µM (inactive); in the test with NCI-H226, > 81.1 µM (inactive). Moreover, the GI50 is 32.5 µM (inactive) in the test with OVCAR-4; 58.3 µM (inactive) in the test on OVCAR-8; 52.6 µM (inactive) in the test on SF-268; > 89.7 µM (inactive) in the test on SF-295; > 100 µM (inactive) in the test on SK-MEL-28; > 83.4 µM (inactive) with SN12C. Also, the GI50 in the test with SNB-19 is 99.1 µM (inactive); with SNB-75, 27.2 µM (inactive); in the test with U-251, > 100 µM (inactive); with UACC-257 it was > 100 µM (inactive); with UO-31, > 50.9 µM (inactive).

In the case of `O=C(O)CCCCCCC[C@@H]1S[C@H]1CCCCCCO`, the GI50 is > 100 µM (inactive) in the test on COLO 205; greater than 100 µM in the test with HCT-15; > 100 µM (inactive) with LOX IMVI; > 100 µM (inactive) in the test with MOLT-4; > 100 µM (inactive) in the test with Malme-3M; > 100 µM (inactive) with NCI-H226. The GI50 in the test on OVCAR-4, in the test with OVCAR-8, with SF-268, with SF-295, in the test with SK-MEL-28 and in the test on SN12C was > 100 µM (inactive) each time. The GI50 with SNB-19, in the test on SNB-75, in the test on U-251, in the test on UACC-257 and in the test on UO-31 was > 100 µM (inactive) each time.

Take `CC(=O)OCC1OC(n2cnc3c(I)nc(I)nc32)C(OC(C)=O)C1OC(C)=O` (centres undefined): the GI50 was 4.58 µM in the test with HCT-15; 14 µM (inactive) in the test on LOX IMVI; 8.13 µM (inactive) with MOLT-4; 18.7 µM (inactive) with Malme-3M; 19.4 µM (inactive) in the test with NCI-H226; 4.71 µM (inactive) in the test with OVCAR-4. Also, the GI50 in the test with OVCAR-8 is 10.3 µM (inactive); in the test on SF-268, 13.4 µM (inactive); in the test with SF-295 it was 20.5 µM (inactive); in the test with SK-MEL-28, 14.9 µM (inactive); with SN12C, 13.5 µM (inactive); with SNB-19, 12.5 µM (inactive). Further, the GI50 was 15.1 µM (inactive) in the test with SNB-75, 10.4 µM (inactive) in the test on U-251, 14.1 µM (inactive) in the test on UACC-257 and 17.7 µM (inactive) in the test on UO-31.

On to `COC1=CC(=O)[C@]2(C)[C@H](C1=O)C(C)[C@H]2c1ccccc1` (some centres undefined), for which the GI50 in the test with COLO 205 was > 100 µM (inactive); in the test on HCT-15, greater than 100 µM; in the test on LOX IMVI it was > 100 µM (inactive); in the test on MOLT-4 it was > 100 µM (inactive); in the test with Malme-3M, > 100 µM (inactive); with NCI-H226, > 100 µM (inactive). The GI50 in the test on OVCAR-4, with OVCAR-8, in the test on SF-268, with SF-295, in the test on SK-MEL-28 and in the test with SNB-19 was > 100 µM (inactive) each time. In addition, the GI50 in the test on SNB-75, in the test on U-251, in the test on UACC-257 and in the test with UO-31 was > 100 µM (inactive) throughout.

For the molecule `O=C(C#Cc1cnc(O)nc1O)c1ccccc1Cl`, the GI50 is 15.7 µM (inactive) with COLO 205; 15 µM in the test on HCT-15; 13.4 µM (inactive) in the test on LOX IMVI; 10.3 µM (inactive) with MOLT-4; 13.3 µM (inactive) in the test with Malme-3M; 28.8 µM (inactive) in the test with NCI-H226. The GI50 with OVCAR-4 is 17.4 µM (inactive); in the test with OVCAR-8 it was 15.2 µM (inactive); in the test on SF-268, 20.7 µM (inactive); with SF-295 it was > 100 µM (inactive); with SK-MEL-28, 17.9 µM (inactive); in the test on SN12C it was 14.1 µM (inactive). In addition, the GI50 in the test with SNB-19 is 52.6 µM (inactive); with SNB-75, 19.9 µM (inactive); in the test with U-251, 17.9 µM (inactive); with UACC-257, 14.7 µM (inactive); in the test with UO-31, 21 µM (inactive).
